Measurements as given in ChEMBL document CHEMBL5518164, “Membrane-permeable tenofovir-di- and monophosphate analogues” (Eur J Med Chem, 2024).
pEC50: −log10 of the molar value. The source made the active and inactive calls. The calls are words filed in the database; no cut-off is given here.

Assays:
[1] = Cytotoxicity against human CEM cells assessed as inhibition of cell proliferation; type: toxicity, cell-based, CCRF-CEM
[2] = Half life of the compound in phosphate buffer saline at pH 7.3 by RP18-HPLC analysis; type: ADME
[3] = biological target: T1, DNA polymerase subunit gamma-1 (Homo sapiens) (UniProt P54098); test: Substrate activity at human DNA polymerase gamma assessed as n+1 band formation incubated for 120 mins in presence of primer/template mixture and dNTPs by primer extension assay based fluorescence analysis
T1 sequence (whole entry): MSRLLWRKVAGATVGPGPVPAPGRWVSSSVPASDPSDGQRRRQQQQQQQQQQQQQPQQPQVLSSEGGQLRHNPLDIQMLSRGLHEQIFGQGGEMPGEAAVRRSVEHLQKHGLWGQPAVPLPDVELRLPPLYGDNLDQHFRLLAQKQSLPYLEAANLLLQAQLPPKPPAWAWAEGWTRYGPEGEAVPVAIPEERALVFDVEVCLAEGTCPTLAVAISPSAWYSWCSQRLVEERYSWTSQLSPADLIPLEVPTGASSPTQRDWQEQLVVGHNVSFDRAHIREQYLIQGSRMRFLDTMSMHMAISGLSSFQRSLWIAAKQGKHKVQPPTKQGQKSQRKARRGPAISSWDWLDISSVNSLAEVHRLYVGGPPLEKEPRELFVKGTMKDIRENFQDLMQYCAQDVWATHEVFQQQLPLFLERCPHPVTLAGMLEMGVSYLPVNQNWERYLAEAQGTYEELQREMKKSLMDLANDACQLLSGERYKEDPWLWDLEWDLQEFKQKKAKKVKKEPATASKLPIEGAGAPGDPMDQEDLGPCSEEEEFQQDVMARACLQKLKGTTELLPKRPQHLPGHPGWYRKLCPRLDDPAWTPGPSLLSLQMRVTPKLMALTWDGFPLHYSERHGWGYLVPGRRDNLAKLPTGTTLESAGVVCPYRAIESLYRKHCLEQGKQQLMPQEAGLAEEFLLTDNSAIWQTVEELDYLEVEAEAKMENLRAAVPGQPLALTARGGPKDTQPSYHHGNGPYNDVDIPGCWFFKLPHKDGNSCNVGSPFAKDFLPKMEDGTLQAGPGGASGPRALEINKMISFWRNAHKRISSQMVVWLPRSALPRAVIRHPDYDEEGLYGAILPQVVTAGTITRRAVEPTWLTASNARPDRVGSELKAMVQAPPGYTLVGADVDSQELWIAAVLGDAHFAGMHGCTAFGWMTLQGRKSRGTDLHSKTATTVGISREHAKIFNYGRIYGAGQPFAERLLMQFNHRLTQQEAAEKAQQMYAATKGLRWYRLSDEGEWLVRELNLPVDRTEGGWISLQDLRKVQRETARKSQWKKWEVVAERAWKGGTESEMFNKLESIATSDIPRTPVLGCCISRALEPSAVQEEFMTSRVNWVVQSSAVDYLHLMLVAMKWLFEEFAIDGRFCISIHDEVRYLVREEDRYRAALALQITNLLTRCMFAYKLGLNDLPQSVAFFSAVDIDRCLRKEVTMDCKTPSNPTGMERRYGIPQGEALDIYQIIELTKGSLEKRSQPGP

[4] = system: Human immunodeficiency virus 2; test: Antiviral activity against HIV-2 ROD infected in wild type human CEM/0 cells assessed as inhibition of virus-induced giant cell formation incubated for 4 to 5 days by light microscopy; type: functional, organism-based; conditions: Human immunodeficiency virus 2, ROD, CCRF-CEM
[5] = Half life of the compound in phosphate buffer saline in presence of pig liver esterase at pH 7.3 by RP18-HPLC analysis; type: ADME, Sus scrofa
[6] = Half life of the compound in heparin-stabilized human plasma by HPLC analysis; type: ADME, cell-free
[7] = system: Human immunodeficiency virus 2; test: Antiviral activity against HIV-2 ROD infected in thymidine kinase deficient human CEM cells assessed as inhibition of virus-induced giant cell formation incubated for 4 to 5 days by light microscopy; type: functional, organism-based; conditions: Human immunodeficiency virus 2, ROD, CCRF-CEM
[8] = Half life of the compound in human CEM/0 cell extracts by RP18-HPLC analysis; type: ADME, CCRF-CEM
[9] = Drug metabolism in heparin-stabilized human plasma assessed as (R)-9-(2-(phosphonomethoxy)propyl)adenine formation by HPLC analysis; type: ADME, cell-free

half-life [2] [h] | Activity [3] | pEC50 [4] | half-life [5] [h] | half-life [6] [h] | pEC50 [7] | half-life [8] [h] | Drug metabolism [9] | Structure (SMILES) | CC50 [1] [nM]
27 | inactive | 8.52 | 24 | > 5 | 8.70 | 5.1 | Metabolite_Detected | CCCCCCCCCCCCCCCCCCP(=O)(OCCCC)OP(=O)(O)CO[C@H](C)Cn1cnc2c(N)ncnc21 (some centres not stated) | 37800
257 | inactive | 7.72 | > 100 | > 8 | 7.92 | > 20 | Metabolite_Detected | CCCCCCCCCCCCCCCCCCOP(=O)(OCCCC)OP(=O)(O)OP(=O)(O)CO[C@H](C)Cn1cnc2c(N)ncnc21 (some centres not stated) | 44300
> 500 | inactive | 7.21 | > 100 | > 8 | 7.48 | > 8 | Metabolite_Detected | CCCCCCCCCCCCCCCCCCP(=O)(OCCCC)OP(=O)(O)OP(=O)(O)CO[C@H](C)Cn1cnc2c(N)ncnc21 (some centres not stated) | 44600
